PubChem BioAssay AID1963449 (Molecular Pharmacology Branch, DTP, NCI, 2024)
pIC50: −log10 of the molar value. Each block holds one compound with its values, some of them ahead of it.

System: 596521-263-R-J1-PDC complex spheroid growth
Assay: Anticancer human tumor 596521-263-R-J1-PDC patient-derived soft tissue sarcoma cell line growth inhibition [Asc]
Conditions: for pIC50: curve of first compound; for viability, T/C: stronger effect = lower value
Procedure, shortened: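 Complex spheroids combining tumor cells with HUVEC endothelial cells and human MSCs, at 37 degrees C, 5% CO2; agents tested alone or combined, half-log dilutions from at or near clinical Cmax, or 10 microM if Cmax unknown.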

[1] = second compound 0.0316 µM, first compound 0.0316 µM
[2] = second compound 0.0316 µM, first compound 0.1 µM
[3] = second compound 0.0316 µM, first compound 0.316 µM
[4] = second compound 0.0316 µM, first compound 1 µM
[5] = second compound 0.1 µM, first compound 0.0316 µM
[6] = second compound 0.1 µM, first compound 0.1 µM
[7] = second compound 0.1 µM, first compound 0.316 µM
[8] = second compound 0.1 µM, first compound 1 µM
[9] = second compound 0.316 µM, first compound 0.0316 µM
[10] = second compound 0.316 µM, first compound 0.1 µM
[11] = second compound 0.316 µM, first compound 0.316 µM
[12] = second compound 0.316 µM, first compound 1 µM
[13] = second compound 1 µM, first compound 0.0316 µM
[14] = second compound 1 µM, first compound 0.1 µM
[15] = second compound 1 µM, first compound 0.316 µM
[16] = second compound 1 µM, first compound 1 µM
[17] = second compound 3.16 µM, first compound 0.0316 µM
[18] = second compound 3.16 µM, first compound 0.1 µM
[19] = second compound 3.16 µM, first compound 0.316 µM
[20] = second compound 3.16 µM, first compound 1 µM
[21] = second compound 10 µM, first compound 0.0316 µM
[22] = second compound 10 µM, first compound 0.1 µM
[23] = second compound 10 µM, first compound 0.316 µM
[24] = second compound 10 µM, first compound 1 µM
[25] = second compound 0.0316 µM, first compound 0.00316 µM
[26] = second compound 0.0316 µM, first compound 0.01 µM
[27] = second compound 0.1 µM, first compound 0.00316 µM
[28] = second compound 0.1 µM, first compound 0.01 µM
[29] = second compound 0.316 µM, first compound 0.00316 µM
[30] = second compound 0.316 µM, first compound 0.01 µM
[31] = second compound 1 µM, first compound 0.00316 µM
[32] = second compound 1 µM, first compound 0.01 µM
[33] = second compound 3.16 µM, first compound 0.00316 µM
[34] = second compound 3.16 µM, first compound 0.01 µM
[35] = second compound 10 µM, first compound 0.00316 µM
[36] = second compound 10 µM, first compound 0.01 µM
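Also: spheroids exposed to compounds for 7 days.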

pIC50 (second compound 0.0316 µM): < 5.00
pIC50 (second compound 0.1 µM): < 5.00
pIC50 (second compound 0.316 µM): < 5.00
pIC50 (second compound 1 µM): 5.20
pIC50 (second compound 3.16 µM): 5.53
pIC50 (second compound 10 µM): 5.87
Compound: C=CC(=O)N1CCN(c2nc(=O)n(-c3c(C)ccnc3C(C)C)c3nc(-c4c(O)cccc4F)c(F)cc23)C(C)C1 (stereo unspecified) + Cc1c(S(C)(=O)=O)c(-c2cc(F)cc(N3CCN(c4ccc(NS(=O)(=O)c5ccc(NC(CCN6CCC(C(=O)OCCCP(=O)(O)O)CC6)CSc6ccccc6)c(S(=O)(=O)C(F)(F)F)c5)cc4)CC3)c2)c(-c2ccc(Cl)cc2)n1C(C)C
viability, T/C [1]: 83.2%
viability, T/C [2]: 84.6%
viability, T/C [3]: 95%
viability, T/C [4]: 98.9%
viability, T/C (second compound 0.0316 µM, first compound 3.16 µM): 94.9%
viability, T/C (second compound 0.0316 µM, first compound 10 µM): 65.8%
viability, T/C [5]: 87.3%
viability, T/C [6]: 93.9%
viability, T/C [7]: 93.6%
viability, T/C [8]: 107%
viability, T/C (second compound 0.1 µM, first compound 3.16 µM): 95.8%
viability, T/C (second compound 0.1 µM, first compound 10 µM): 63%
viability, T/C [9]: 83.7%
viability, T/C [10]: 82.5%
viability, T/C [11]: 80.1%
viability, T/C [12]: 99.9%
viability, T/C (second compound 0.316 µM, first compound 3.16 µM): 87.1%
viability, T/C (second compound 0.316 µM, first compound 10 µM): 59.9%
viability, T/C [13]: 82.3%
viability, T/C [14]: 75.9%
viability, T/C [15]: 81%
viability, T/C [16]: 73.5%
viability, T/C (second compound 1 µM, first compound 3.16 µM): 70.5%
viability, T/C (second compound 1 µM, first compound 10 µM): 37.1%
viability, T/C [17]: 66.6%
viability, T/C [18]: 63%
viability, T/C [19]: 62.6%
viability, T/C [20]: 63.4%
viability, T/C (second compound 3.16 µM, first compound 3.16 µM): 49.3%
viability, T/C (second compound 3.16 µM, first compound 10 µM): 36%
viability, T/C [21]: 55.9%
viability, T/C [22]: 53%
viability, T/C [23]: 60.1%
viability, T/C [24]: 52.4%
viability, T/C (second compound 10 µM, first compound 3.16 µM): 40.8%
viability, T/C (second compound 10 µM, first compound 10 µM): 30.6%

pIC50 (second compound 0.0316 µM): 6.68
pIC50 (second compound 0.1 µM): 6.85
pIC50 (second compound 0.316 µM): 6.86
pIC50 (second compound 1 µM): 7.13
pIC50 (second compound 3.16 µM): 7.26
pIC50 (second compound 10 µM): 8.09
Compound: COc1c(OCCCN2CCOCC2)ccc2c3n(c(=NC(=O)c4cnc(N)nc4)nc12)CCN3 + Cc1c(S(C)(=O)=O)c(-c2cc(F)cc(N3CCN(c4ccc(NS(=O)(=O)c5ccc(NC(CCN6CCC(C(=O)OCCCP(=O)(O)O)CC6)CSc6ccccc6)c(S(=O)(=O)C(F)(F)F)c5)cc4)CC3)c2)c(-c2ccc(Cl)cc2)n1C(C)C
viability, T/C [25]: 95.5%
viability, T/C [26]: 90.8%
viability, T/C [1]: 79.2%
viability, T/C [2]: 67.3%
viability, T/C [3]: 39.9%
viability, T/C [4]: 29.4%
viability, T/C [27]: 89.6%
viability, T/C [28]: 92.5%
viability, T/C [5]: 84.2%
viability, T/C [6]: 54.6%
viability, T/C [7]: 37.6%
viability, T/C [8]: 25.6%
viability, T/C [29]: 85.6%
viability, T/C [30]: 84.2%
viability, T/C [9]: 65.9%
viability, T/C [10]: 58.1%
viability, T/C [11]: 36.1%
viability, T/C [12]: 25.4%
viability, T/C [31]: 91.6%
viability, T/C [32]: 76.1%
viability, T/C [13]: 62%
viability, T/C [14]: 47%
viability, T/C [15]: 31.3%
viability, T/C [16]: 24.9%
viability, T/C [33]: 61.5%
viability, T/C [34]: 62.9%
viability, T/C [17]: 55.9%
viability, T/C [18]: 43.1%
viability, T/C [19]: 27.1%
viability, T/C [20]: 18.5%
viability, T/C [35]: 52.4%
viability, T/C [36]: 50%
viability, T/C [21]: 42.9%
viability, T/C [22]: 41.2%
viability, T/C [23]: 24.8%
viability, T/C [24]: 13.4%

pIC50 (second compound 0.0316 µM): < 7.00
pIC50 (second compound 0.1 µM): < 7.00
pIC50 (second compound 0.316 µM): < 7.00
pIC50 (second compound 1 µM): < 7.00
pIC50 (second compound 3.16 µM): < 7.00
pIC50 (second compound 10 µM): > 9.50
Compound: NC1CCC(NC2CC2c2ccccc2)CC1 (stereo unspecified) + Cc1c(S(C)(=O)=O)c(-c2cc(F)cc(N3CCN(c4ccc(NS(=O)(=O)c5ccc(NC(CCN6CCC(C(=O)OCCCP(=O)(O)O)CC6)CSc6ccccc6)c(S(=O)(=O)C(F)(F)F)c5)cc4)CC3)c2)c(-c2ccc(Cl)cc2)n1C(C)C
viability, T/C (second compound 0.0316 µM, first compound 0.000316 µM): 79.8%
viability, T/C (second compound 0.0316 µM, first compound 0.001 µM): 88.9%
viability, T/C [25]: 80.2%
viability, T/C [26]: 90.4%
viability, T/C [1]: 89.2%
viability, T/C [2]: 80.6%
viability, T/C (second compound 0.1 µM, first compound 0.000316 µM): 86.7%
viability, T/C (second compound 0.1 µM, first compound 0.001 µM): 91.8%
viability, T/C [27]: 77.5%
viability, T/C [28]: 89.7%
viability, T/C [5]: 86.5%
viability, T/C [6]: 80.8%
viability, T/C (second compound 0.316 µM, first compound 0.000316 µM): 84.1%
viability, T/C (second compound 0.316 µM, first compound 0.001 µM): 77.6%
viability, T/C [29]: 75.9%
viability, T/C [30]: 77.9%
viability, T/C [9]: 76.7%
viability, T/C [10]: 75.7%
viability, T/C (second compound 1 µM, first compound 0.000316 µM): 81.2%
viability, T/C (second compound 1 µM, first compound 0.001 µM): 75.8%
viability, T/C [31]: 66.3%
viability, T/C [32]: 72.7%
viability, T/C [13]: 68.7%
viability, T/C [14]: 74.1%
viability, T/C (second compound 3.16 µM, first compound 0.000316 µM): 69.1%
viability, T/C (second compound 3.16 µM, first compound 0.001 µM): 55.7%
viability, T/C [33]: 51.9%
viability, T/C [34]: 58.9%
viability, T/C [17]: 55.4%
viability, T/C [18]: 53.4%
viability, T/C (second compound 10 µM, first compound 0.000316 µM): 48.6%
viability, T/C (second compound 10 µM, first compound 0.001 µM): 42.9%
viability, T/C [35]: 44.2%
viability, T/C [36]: 49%
viability, T/C [21]: 35.7%
viability, T/C [22]: 43%
